How the values were obtained:
flt-3 = target: T1, flt-3 (Homo sapiens, UniProt P36888); assay: flt-3 Luciferase-Coupled Chemiluminescent Kinase assay (LCCA); type: biochemical
T1 construct: baculovirus expressed human Flt-3 kinase domain R571-S993
T1 sequence (P36888 571-993): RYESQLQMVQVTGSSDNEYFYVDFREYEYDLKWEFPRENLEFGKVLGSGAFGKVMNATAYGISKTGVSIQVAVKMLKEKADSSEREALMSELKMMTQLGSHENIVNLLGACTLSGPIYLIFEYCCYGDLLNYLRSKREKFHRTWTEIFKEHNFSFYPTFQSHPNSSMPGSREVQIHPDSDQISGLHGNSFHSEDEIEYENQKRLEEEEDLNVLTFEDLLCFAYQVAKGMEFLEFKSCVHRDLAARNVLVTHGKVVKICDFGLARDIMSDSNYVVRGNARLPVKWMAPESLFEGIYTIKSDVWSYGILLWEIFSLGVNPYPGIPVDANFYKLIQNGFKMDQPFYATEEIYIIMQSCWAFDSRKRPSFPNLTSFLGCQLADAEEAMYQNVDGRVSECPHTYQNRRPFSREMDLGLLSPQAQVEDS
How it was run: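 Baculovirus-expressed human Flt-3 kinase domain (R571-S993, 5 nM) was reacted with 5 μM ATP and 3 μM poly-EY in Tris pH 7.5 buffer with MgCl2/MnCl2 for 3 h at ambient temperature. Remaining ATP was read by luciferase-luciferin chemiluminescence, with ATP consumption standardized to 25-45%, for IC50.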

EphB4 = target: T2, EphB4 (Homo sapiens, UniProt P54760); assay: EphB4 kinase inhibition assay; type: biochemical
T2 sequence (P54760 16-987): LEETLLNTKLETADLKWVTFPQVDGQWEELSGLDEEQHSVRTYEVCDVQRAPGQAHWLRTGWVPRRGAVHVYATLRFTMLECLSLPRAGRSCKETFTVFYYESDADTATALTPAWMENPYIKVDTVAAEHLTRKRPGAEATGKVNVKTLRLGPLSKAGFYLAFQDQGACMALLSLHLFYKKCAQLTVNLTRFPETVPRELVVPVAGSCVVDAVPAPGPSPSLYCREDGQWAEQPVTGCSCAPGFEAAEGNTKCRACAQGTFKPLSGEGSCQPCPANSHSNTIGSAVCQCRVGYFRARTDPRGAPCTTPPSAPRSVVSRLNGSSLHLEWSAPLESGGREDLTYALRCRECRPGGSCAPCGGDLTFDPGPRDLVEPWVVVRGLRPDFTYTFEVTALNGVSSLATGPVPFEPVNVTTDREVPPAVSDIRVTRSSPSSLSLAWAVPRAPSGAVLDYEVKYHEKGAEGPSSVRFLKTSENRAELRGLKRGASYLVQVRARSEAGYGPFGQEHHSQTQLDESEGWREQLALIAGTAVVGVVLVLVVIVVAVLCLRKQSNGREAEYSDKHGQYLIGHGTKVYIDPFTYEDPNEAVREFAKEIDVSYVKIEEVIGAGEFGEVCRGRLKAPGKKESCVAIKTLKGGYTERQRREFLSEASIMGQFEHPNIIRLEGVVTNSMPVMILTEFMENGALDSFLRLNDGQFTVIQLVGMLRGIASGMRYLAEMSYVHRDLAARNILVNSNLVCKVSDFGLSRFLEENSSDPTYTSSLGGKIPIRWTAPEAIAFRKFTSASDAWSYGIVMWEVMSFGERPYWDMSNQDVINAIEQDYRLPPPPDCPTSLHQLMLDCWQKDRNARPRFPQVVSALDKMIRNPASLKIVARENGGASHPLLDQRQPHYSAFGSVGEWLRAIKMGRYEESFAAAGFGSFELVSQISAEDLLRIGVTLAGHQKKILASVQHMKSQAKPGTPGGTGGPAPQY
How it was run: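 ATP near each kinase's KM; 10-point dose-response fitted to a four-parameter equation for IC50. Formats: γ33P-ATP transfer to plate-coated substrate (1.5-2.5 h, ambient, scintillation), luciferase-coupled ATP-consumption read-out (2-4 h, 25-45% ATP consumed), or AlphaScreen with biotinylated poly(Glu,Tyr) 4:1 (1 h).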

c-Kit = c-Kit (Homo sapiens, UniProt P10721); assay: c-Kit biochemical assay (AlphaScreen)
How it was run: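 Kinase, compound, ATP and biotinylated poly(Glu,Tyr) 4:1 reacted 1 hr at ambient temperature; quenched with EDTA buffer (pH 7.4) containing streptavidin donor and anti-phosphotyrosine PY100 acceptor beads, incubated 16 hr, then AlphaScreen signal read to give IC50.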

EGFR = EGFR (Homo sapiens, UniProt P00533); assay: EGFR kinase inhibition assay; type: biochemical
Chain of EGFR (P00533 25-1210, species assumed): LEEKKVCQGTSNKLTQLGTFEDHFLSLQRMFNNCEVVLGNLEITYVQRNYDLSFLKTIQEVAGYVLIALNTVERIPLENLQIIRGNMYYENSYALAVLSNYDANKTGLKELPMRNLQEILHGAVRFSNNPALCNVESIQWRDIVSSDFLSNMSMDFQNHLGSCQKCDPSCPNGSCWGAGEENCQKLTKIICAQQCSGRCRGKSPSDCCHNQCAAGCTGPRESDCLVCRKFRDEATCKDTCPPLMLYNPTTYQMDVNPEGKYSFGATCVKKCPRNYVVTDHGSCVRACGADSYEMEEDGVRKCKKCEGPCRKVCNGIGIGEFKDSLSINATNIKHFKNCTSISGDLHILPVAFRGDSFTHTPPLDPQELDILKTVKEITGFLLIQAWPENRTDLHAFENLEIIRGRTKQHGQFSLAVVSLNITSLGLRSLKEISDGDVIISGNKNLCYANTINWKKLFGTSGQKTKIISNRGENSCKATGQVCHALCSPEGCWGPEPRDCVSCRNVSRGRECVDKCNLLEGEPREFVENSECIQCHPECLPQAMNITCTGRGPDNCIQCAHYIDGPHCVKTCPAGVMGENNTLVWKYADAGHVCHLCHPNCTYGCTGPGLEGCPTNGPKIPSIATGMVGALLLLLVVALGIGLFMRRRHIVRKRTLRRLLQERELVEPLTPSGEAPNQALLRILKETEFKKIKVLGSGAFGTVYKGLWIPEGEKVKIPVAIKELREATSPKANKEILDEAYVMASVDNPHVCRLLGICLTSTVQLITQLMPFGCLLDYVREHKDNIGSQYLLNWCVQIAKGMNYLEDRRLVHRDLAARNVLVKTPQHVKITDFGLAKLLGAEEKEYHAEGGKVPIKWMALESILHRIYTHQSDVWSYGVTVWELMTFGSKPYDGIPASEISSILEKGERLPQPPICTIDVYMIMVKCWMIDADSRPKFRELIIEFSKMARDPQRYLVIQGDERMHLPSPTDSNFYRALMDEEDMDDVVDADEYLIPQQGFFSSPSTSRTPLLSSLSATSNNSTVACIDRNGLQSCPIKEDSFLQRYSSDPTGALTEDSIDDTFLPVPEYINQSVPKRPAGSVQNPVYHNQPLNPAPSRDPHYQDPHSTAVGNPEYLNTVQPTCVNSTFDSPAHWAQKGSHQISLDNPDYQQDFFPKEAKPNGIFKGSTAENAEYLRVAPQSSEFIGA

Chain of c-Kit (P10721 26-976): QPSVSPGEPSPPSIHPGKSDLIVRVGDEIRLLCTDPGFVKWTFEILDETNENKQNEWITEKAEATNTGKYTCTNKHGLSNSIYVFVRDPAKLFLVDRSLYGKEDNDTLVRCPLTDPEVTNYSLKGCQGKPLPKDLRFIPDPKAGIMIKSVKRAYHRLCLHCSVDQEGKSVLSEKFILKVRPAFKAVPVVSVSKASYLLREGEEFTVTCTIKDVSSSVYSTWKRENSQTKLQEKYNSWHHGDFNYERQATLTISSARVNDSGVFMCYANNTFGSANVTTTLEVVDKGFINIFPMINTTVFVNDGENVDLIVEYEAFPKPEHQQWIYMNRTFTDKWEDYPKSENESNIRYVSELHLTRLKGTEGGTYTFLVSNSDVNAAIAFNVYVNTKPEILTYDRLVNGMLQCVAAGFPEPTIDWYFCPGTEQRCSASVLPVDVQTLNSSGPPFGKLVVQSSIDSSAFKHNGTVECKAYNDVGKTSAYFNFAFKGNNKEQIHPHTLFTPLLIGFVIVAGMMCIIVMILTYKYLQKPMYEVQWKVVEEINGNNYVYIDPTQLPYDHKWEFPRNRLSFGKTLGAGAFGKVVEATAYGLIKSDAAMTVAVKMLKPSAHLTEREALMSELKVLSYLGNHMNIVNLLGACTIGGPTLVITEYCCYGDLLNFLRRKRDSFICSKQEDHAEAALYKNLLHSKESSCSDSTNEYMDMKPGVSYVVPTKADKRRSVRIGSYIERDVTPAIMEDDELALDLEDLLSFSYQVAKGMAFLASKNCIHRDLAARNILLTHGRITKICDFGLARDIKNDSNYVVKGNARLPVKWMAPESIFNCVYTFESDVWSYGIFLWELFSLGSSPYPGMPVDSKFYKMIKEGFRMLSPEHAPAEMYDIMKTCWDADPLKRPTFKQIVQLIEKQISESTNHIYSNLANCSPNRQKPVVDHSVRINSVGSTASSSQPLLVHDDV

Row | SMILES | IC50 (flt-3) [µM] | IC50 (EphB4) [µM] | IC50 (c-Kit) [µM] | IC50 (EGFR) [µM]
1 | CN1CCN(c2ccc(-c3cc(-c4ccc(NC(=O)C(=O)NCCc5ccccc5)cc4)[nH]n3)cc2)CC1 [Entry 46, N-(4-{3-[4-(4-methylpiperazin-1-yl)phenyl]-1H-pyrazol-5-yl}phenyl)-N′-(2-phenylethyl)ethanediamide] | > 5 | 0.5 to 5 | 0.05 to 0.5 | > 5
2 | Cc1ccc(F)cc1NC(=O)Nc1ccc(-c2cc(-c3ccc(N4CCN(C)CC4)cc3)[nH]n2)cc1 [Entry 53, N-(5-fluoro-2-methylphenyl)-N′-(4-{5-[4-(4-methylpiperazin-1-yl)phenyl]-1H-pyrazol-3-yl}phenyl)urea] | 0.05 to 0.5 | > 5 | 0.05 to 0.5 | > 5
3 | COc1cc(/C=C/c2cc(-c3ccccc3)[nH]n2)ccc1O [Entry 55, 2-(methyloxy)-4-[(E)-2-(5-phenyl-1H-pyrazol-3-yl)ethenyl]phenol] | 0.05 to 0.5 | > 5 | 0.05 to 0.5 | > 5
4 | Oc1ccc(/C=C/c2cc(-c3ccc4ccccc4c3)[nH]n2)cc1 [Entry 56, 4-[(E)-2-(5-naphthalen-2-yl-1H-pyrazol-3-yl)ethenyl]phenol] | 0.05 to 0.5 | > 5 | 0.05 to 0.5 | > 5
5 | Oc1ccc(/C=C/c2cc(-c3ccccc3F)[nH]n2)cc1 [Entry 57, 4-{(E)-2-[5-(2-fluorophenyl)-1H-pyrazol-3-yl]ethenyl}phenol] | 0.05 to 0.5 | > 5 | 0.05 to 0.5 | > 5
6 | CN1CCN(c2cccc(-c3cc(/C=C/c4ccc(O)cc4)[nH]n3)c2)CC1 [Entry 58, 4-((E)-2-{3-[3-(4-methylpiperazin-1-yl)phenyl]-1H-pyrazol-5-yl}ethenyl)phenol] | 0.05 to 0.5 | > 5 | 0.05 to 0.5 | > 5
7 | Oc1ccc(/C=C/c2cc(-c3ccc(Cl)cc3)n[nH]2)cc1 [Entry 61, 4-{(E)-2-[3-(4-chlorophenyl)-1H-pyrazol-5-yl]ethenyl}phenol] | 0.05 to 0.5 | > 5 | 0.5 to 5 | > 5
8 | O=C(Nc1ccccc1)Nc1ccc(-c2cc(-c3ccccc3)n[nH]2)cc1 [Entry 76, N-phenyl-N′-[4-(3-phenyl-1H-pyrazol-5-yl)phenyl]urea] | 0.5 to 5 | > 5 | 0.5 to 5 | > 5

Other lines, results leading:

Row | IC50 (flt-3) [µM] | IC50 (EphB4) [µM] | IC50 (c-Kit) [µM] | IC50 (EGFR) [µM] | SMILES
9 | < 0.05 | > 5 | 0.05 to 0.5 | > 5 | COc1cc(/C=C/c2cc(/C=C/c3ccc(F)cc3)n[nH]2)ccc1O [Entry 44, 4-((E)-2-{3-[(E)-2-(4-fluorophenyl)ethenyl]-1H-pyrazol-5-yl}ethenyl)-2-(methyloxy)phenol]
10 | 0.05 to 0.5 | > 5 | 0.05 to 0.5 | > 5 | Oc1ccc(/C=C/c2cc(-c3cc4ccccc4o3)n[nH]2)cc1 [Entry 45, 4-{(E)-2-[3-(1-benzofuran-2-yl)-1H-pyrazol-5-yl]ethenyl}phenol]
11 | < 0.05 | 0.5 to 5 | 0.05 to 0.5 | > 5 | Oc1ccc(/C=C/c2cc(-c3nc4ccccc4[nH]3)n[nH]2)cc1 [Entry 47, 4-{(E)-2-[3-(1H-benzimidazol-2-yl)-1H-pyrazol-5-yl]ethenyl}phenol]
12 | < 0.05 | > 5 | 0.05 to 0.5 | > 5 | COc1cc(/C=C/c2cc(/C=C/c3ccc(Cl)cc3)n[nH]2)ccc1O [Entry 48, 4-((E)-2-{3-[(E)-2-(4-chlorophenyl)ethenyl]-1H-pyrazol-5-yl}ethenyl)-2-(methyloxy)phenol]
13 | 0.05 to 0.5 | > 5 | 0.05 to 0.5 | > 5 | Oc1ccc(/C=C/c2cc(-c3cc4ccccc4s3)n[nH]2)cc1 [Entry 49, 4-{(E)-2-[3-(1-benzothien-2-yl)-1H-pyrazol-5-yl]ethenyl}phenol]
14 | 0.05 to 0.5 | > 5 | 0.05 to 0.5 | > 5 | O=C(Nc1ccc(-c2cc(-c3ccccc3)n[nH]2)cc1)Nc1ccc(Cl)c(C(F)(F)F)c1 [Entry 50, N-[4-chloro-3-(trifluoromethyl)phenyl]-N′-[4-(3-phenyl-1H-pyrazol-5-yl)phenyl]urea]
15 | < 0.05 | > 5 | 0.05 to 0.5 | > 5 | CN1CCN(c2ccc(-c3cc(/C=C/c4ccc(O)cc4)[nH]n3)cc2)CC1 [Entry 51, 4-((E)-2-{3-[4-(4-methylpiperazin-1-yl)phenyl]-1H-pyrazol-5-yl}ethenyl)phenol]
16 | < 0.05 | > 5 | 0.05 to 0.5 | > 5 | Oc1ccc(/C=C/c2cc(-c3ccccc3)n[nH]2)cc1 [Entry 54, 4-[(E)-2-(3-phenyl-1H-pyrazol-5-yl)ethenyl]phenol]
17 | < 0.05 | > 5 | 0.05 to 0.5 | > 5 | COc1cc(/C=C/c2cc(/C=C/c3ccc(F)cc3F)n[nH]2)ccc1O [Entry 59, 4-((E)-2-{3-[(E)-2-(2,4-difluorophenyl)ethenyl]-1H-pyrazol-5-yl}ethenyl)-2-(methyloxy)phenol]
18 | < 0.05 | > 5 | 0.05 to 0.5 | > 5 | Oc1ccc(/C=C/c2cc(-c3ccc(F)cc3)[nH]n2)cc1 [Entry 60, 4-{(E)-2-[5-(4-fluorophenyl)-1H-pyrazol-3-yl]ethenyl}phenol]

— US8710038B2, “Pyrazole kinase modulators and methods of use” (Exelixis, Inc., priority 2004, dated 2014)
